Results taken from article PMC3744530, “CTA095, a Novel Etk and Src Dual Inhibitor, Induces Apoptosis in Prostate Cancer Cells and Overcomes Resistance to Src Inhibitors” (PLoS ONE, 2013).
pIC50: −log10 of the molar value.

Columns and labels:
Btk = molecular target: T1, Btk (Homo sapiens, UniProt Q06187); experiment: Kinase inhibition assay (TLC; Kinase-Glo in Figure S2); type: biochemical
T1 construct: purchased Millipore Inc (Dundee, UK)
Procedure: Kinase inhibition was measured using thin-layer-chromatography (TLC). Briefly, purified kinases (20 nM), the corresponding substrate (500 µM, TSFYGRH for Etk, YIYGSFK for the other kinases), and CTA095 (0–10 µM) were incubated in a kinase reaction (100 mM Hepes, pH 7.4, 10 mM MnCl2, 10 mM MgCl2, 1 mM DTT) for 5 min, and the reaction was started by adding 5 μCi ^33P-labeled ATP. The reaction (10 µl) was incubated at room temperature for 1 h and was stopped by adding 10 μL H3PO4. The radioactivity of the peptide substrate was analyzed using TLC as previously described.
Having isolated a small molecule that inhibits Etk, the next logical step was to determine its specificity for this enzyme. To accomplish this, purified Etk, Btk, Src and Yes were incubated in a kinase reaction buffer with CTA095 (0–1 μM) in the presence of ^33P-labeled ATP and a peptide (YIYGSFK), previously shown to be an excellent substrate for both BTK and Src family kinases. The kinase activity was measured using TLC technique.
Supplementary file pone.0070910.s002.tif: Figure S2 Inhibition of Btk by CTA095. Purified Btk (20 nM), CTA095 (0–100 μM), ATP (500 μM) and the peptide substrate (YIYGSFK) were incubated in a kinase reaction. The kinase activity was measured using Kinase-Glo assay kit (Promega Inc.) following the manufacture's instruction. Columns, mean; bars, standard deviation, n = 3. […]

[1] = system: Akt phosphorylation in PC3 cells; experiment: Western blot of Akt phosphorylation; type: cell-based, human; conditions: 24 h
Procedure: Western blotting was performed as described previously. Proteins were detected using the following antibodies: β-actin (Sigma-Aldrich, Saint Louis, MO), Etk (Santa Cruz Inc., Santa Cruz, CA), pEtk; Src, pSrc; Stat3, pStat3. For phospho-Etk, cells were pre-treated with 100 μM pervanadate for 15 min before harvest.
Figure 4 Inhibition of cell signaling in PC3 cells following treatment with CTA095. Cells were grown in 10 mm plate to 50% confluence and treated with CTA095. Cells were harvested after 24 h. pEtk, Etk, pSrc, Src, pStat3, Stat3, pAkt and Akt levels were measured using the corresponding antibodies by Western blot. One of three similar experiments depicted.

caspase 9 in PC3 cells = experiment: Caspase 9 activation (Western blot); type: cell-based, human; conditions: PC3, 0–10 μM, 24 h
Procedure: For caspase 3/7 activities, PC3 cells were seeded at 5,000 cells/well in 96-well plate overnight. Then the cells were treated with 0–10 μM CTA095 for 24 h. Caspase-3/7 activities were measured using the Apo-ONE Homogeneous Caspase-3/7 Assay kit (Promega, Madison, WI) according to the manufacturer's instruction. For caspase 9 activity, PC3 cells were seeded in 10 mm tissue culture plate and grew to 50% confluence. Cells were then treated with 0–10 μM CTA095 for 24 h. Cells were harvested and caspase 9 activity was measured using a Western blot with an anti-caspase 9 antibody.
Figure 7 Induction of apoptosis of PC3 cells following treatment with CTA095. PC3 cells were seeded at 10^6 cells/ml (2 ml) in a 6-well plate overnight and then treated with CTA095 at the indicated concentrations for 24 h. Cell cycle arrest was analyzed using PI staining (A). Apoptosis was analyzed using Annexin-V FITC apoptosis detection kit (B). Caspase 9 activation was measured using western blot (D). For caspase 3/7 activity, PC3 cells were seeded at 5000 cells/well in 96 well plate overnight and treated with CTA095 at 0–10 μM for 24 h. Caspase-3/7 activities were measured using the Apo-ONE Homogeneous Caspase-3/7 Assay kit (Promega, Madison, WI) according to the manufacturer's instruction. Columns, mean; bars, standard deviation, n = 3. […]

HUVEC cells = experiment: HUVEC cell tube formation assay; type: cell-based; conditions: 5 μM, 6 h
Procedure: HUVEC cells were seeded on mitrogel and treated with CTA095 (0 and 5 μM) for 6 h. Vascular tube formation was visualized using a microscope.
(§1) Figure 8 Inhibition of tube formation and cell migration by CTA095. Inhibition of vascular tube formation of HUVEC endothelial cells (A) and inhibition of migration (wound healing) of PC3 human prostate cancer cells (B) by CTA095. (A) HUVEC cells were seed on mitrogel and treated with CTA095 (0 and 5 μM) for 6 h. Vascular tube formation was visualized using microscope. (B) PC3 cells were grown in 6-well plate to 60% confluency. Then wounds were made and treated with CTA095 (0 and 5 μM). Cell migration (wound healing) was visualized under microscope at the indicated times.

PC3 cells = experiment: PC3 cell wound healing assay; type: cell-based, human; conditions: 5 μM, after 48 h
Procedure: PC3 cells were grown in 6-well plate to 60% confluency. Then wounds were made using a tip and treated with CTA095 (0 and 5 μM). Cell migration (wound healing) was visualized under microscope at the indicated times.
as §1

[2] = system: Myc mRNA in PC3-AZD20 cells; experiment: Real-time PCR of Myc mRNA; type: cell-based, human; conditions: PC3-AZD20, 10 μM, RT-PCR
Procedure: PC3-AZD20 cells were seeded at 10^6 cells/well in 6 well plates overnight. The cells were treated with AZD0530 or CTA095 at 10 μM. Apoptosis was analyzed using Annexin-V FITC apoptosis detection kit. The mRNA levels of Myc and BCL2 were measured using real-time PCR. pEtk, Etk, pSrc, Src, pStat3, Stat3, Myc and BCL2 levels were measured using the corresponding antibodies through a Western blot.
Figure 12 CTA095 induces apoptosis in Src inhibitor resistant prostate cancer cells through Myc and BCL2 inhibition. PC3-AZD20 (PC3 cell resistant to 20 μM AZD0530) cells were seeded at 10^6 cells/well in 6 well plates overnight. The cells were treated with AZD0530 or CTA095 at 10 μM. Apoptosis was analyzed using Annexin-V FITC apoptosis detection kit (A). The mRNA levels of Myc and BCL2 were measured using real-time PCR (B). pEtk, Etk, pSrc, Src, pStat3, Stat3, Myc and BCL2 levels were measured using the corresponding antibodies through Western blot (C). Columns, mean; bars, standard deviation, n = 3.

T1 sequence (Q06187 whole entry): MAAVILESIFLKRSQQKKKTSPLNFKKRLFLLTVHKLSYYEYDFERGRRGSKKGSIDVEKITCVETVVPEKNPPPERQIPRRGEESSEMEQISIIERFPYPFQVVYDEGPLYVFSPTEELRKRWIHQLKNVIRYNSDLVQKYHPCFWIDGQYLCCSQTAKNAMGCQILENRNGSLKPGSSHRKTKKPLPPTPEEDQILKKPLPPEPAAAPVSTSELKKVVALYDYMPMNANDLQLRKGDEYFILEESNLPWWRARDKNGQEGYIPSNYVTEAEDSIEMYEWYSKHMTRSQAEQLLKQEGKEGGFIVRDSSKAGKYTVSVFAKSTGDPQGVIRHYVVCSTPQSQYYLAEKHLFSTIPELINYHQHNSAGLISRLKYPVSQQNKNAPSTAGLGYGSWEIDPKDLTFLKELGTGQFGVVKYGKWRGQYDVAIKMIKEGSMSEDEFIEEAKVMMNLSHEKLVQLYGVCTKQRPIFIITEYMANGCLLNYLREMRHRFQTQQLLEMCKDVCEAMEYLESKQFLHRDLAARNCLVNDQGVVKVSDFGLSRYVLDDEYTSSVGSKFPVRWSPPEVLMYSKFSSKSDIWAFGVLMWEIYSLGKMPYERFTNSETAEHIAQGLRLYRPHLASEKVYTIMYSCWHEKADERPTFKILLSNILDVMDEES

In the case of `O=c1[nH]c2cc3nc(-c4ccc5oc6ccccc6c5c4)n(CCCN4CCCCC4)c3cc2nc1-c1ccccc1` [CTA095, 2-(dibenzo[b,d]furan-2-yl)-7-phenyl-1-(3-(piperidin-1-yl)propyl)-1H-imidazo[4,5-g]quinoxalin-6(5H)-one], the pIC50 (Btk) was less than 5.00, the Akt phosphorylation [1] was “inhibited” and the “activation of caspase 9” value (caspase 9 in PC3 cells) was “dose dependent activation”. For the same molecule, the “tube formation of HUVEC cells” value (HUVEC cells) was “disrupted”, the “wound healing of PC3 cells” value (PC3 cells) was “greatly inhibited” and the “Myc mRNA level” value [2] was “significantly down regulated”.
